Data taken from patent publication US20250360218A1, “MITOCHONDRIA-TARGETING CANCER THERAPEUTIC COMPOSITION” (Seoul National University R&DB Foundation, priority 2022, published 2025).

Target: TSPO (Homo sapiens, UniProt P30536)
Test: protein binding capacity for TSPO
Experimental: In order to find the conjugation position of IR780, a photosensitizer according to Example of the present invention, and an imidazopyridine derivative, a molecular docking simulation was performed. […] Accordingly, the compound of the present invention, a compound targeting mitochondria in cancer cells, was designed and synthesized so that IR780 was introduced by selecting a position (position Y in FIG. 1B) where steric hindrance is not expected, and then its protein binding capacity was measured.

TSPO, sequence (P30536 whole entry): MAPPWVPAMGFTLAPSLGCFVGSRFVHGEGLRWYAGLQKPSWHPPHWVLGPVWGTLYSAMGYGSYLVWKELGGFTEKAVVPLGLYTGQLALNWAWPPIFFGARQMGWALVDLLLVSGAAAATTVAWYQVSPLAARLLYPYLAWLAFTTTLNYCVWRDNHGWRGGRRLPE

Ki: 201 nM
SMILES: CCCN(CCC)C(=O)Cc1c(-c2ccc(Cl)cc2)nc2c(NC(=S)Nc3ccc(SC4=C(/C=C/C5=[N+](CCC)c6ccccc6C5(C)C)CCC/C4=C\C=C4\N(CCC)c5ccccc5C4(C)C)cc3)cccn12
